Results taken from patent US20260144769A1, “4-PHENYLBUTYRATE RESTORED GABA UPTAKE AND REDUCED SEIZURES IN SLC6A1 VARIANT-MEDIATED DISORDERS” (Vanderbilt University, priority 2022, published 2026).

Key:
[1] = system: GAT-1; assay: GAT-1 protein expression in brain regions of SLC6A1^+/A288V heterozygous mice; format: in vivo, mouse; conditions: A288V het; cerebellum; PBA 100 mg/kg, 7 days
Text: (§1) FIGS. 8C-D show integrated density values (IDVs) for total GAT-1 from wild-type and het KI were normalized to the Na^+/K^+ ATPase or anti-glyceraldehyde-3-phosphate dehydrogenase (GAPDH) loading control (LC) in each specific brain region and plotted. N=4 from 4 pairs of mice. […] The vehicle treated in each brain region was taken as 1. N=4 from 4 pairs of mice for FIG. 8C, FIG. 8D, FIG. 8G and FIG. 8H, Values were expressed as mean±S.E.M. One way ANOVA or unpaired t test.
(§2) The working solution was stored at 4° C.
(§3) Data were expressed as mean±SEM. Proteins were quantified by Odyssey software and data were normalized to loading controls and then to the wildtype subunit protein, which was arbitrarily taken as 1 in each experiment. Fluorescence intensities from confocal microscopy experiments were determined using MetaMorph imaging software, and the measurements were carried out in ImageJ. For statistical significance, one-way or two-way analysis of variance (ANOVA) with post hoc Dunnett or Newman-Keuls test were used. In some cases, unpaired t-test or one sample t-test was performed (GraphPad Prism, La Jolla, CA), and statistical significance was taken as p<0.05.

[2] = system: GAT-1; assay: GAT-1 protein expression in brain regions of SLC6A1^+/S295L heterozygous mice; format: in vivo, mouse; conditions: S295L het; cerebellum; PBA 100 mg/kg, 7 days
Text: as §1, §2, §3

[3] = target: GAT-1 E16X (Rattus norvegicus, UniProt P23978); assay: 3H GABA uptake, HEK293T, mutant cDNA alone ("homozygous"); format: cell-based; design: with only 15 amino acids left in the protein peptide; expressed in transfected cells; host or cells: HEK293T cells; conditions: PBA 2 mM, 24 hrs
Procedure: GABA uptake activity was measured by the high-throughput 3H radio-labeling GABA uptake on a liquid scintillator with QuantaSmart. […] HEK293T cells were transfected with the wildtype or the mutant GAT-1^YFP cDNAs alone for 48 hr. […] HEK293T cells were transfected with the wildtype GAT-1^YFP alone or in mixture of the wildtype or the mutant cDNAs for 48 hr. In the mixed condition, the ratio of the wildtype GAT-1 with pcDNA or the mutant cDNAs are 1:1 with the total cDNA amount of 0.5 μg. […] Both wt and the mutant were normalized to its own DMSO treated conditions. 966 stands for the wildtype treated with CI-966 (50 μM) while 711 stands for NNC-711 (35 μM). (N=4-7 different transfections. In FIG. 4A and FIG. 4B, *P<0.05, **P<0.01, ***p<0.001 vs. wt 0. In FIG. C and FIG. 4D, *P<0.05, **P<0.01, ***p<0.001 vs. its own DMSO treated. In FIG. 4C, ns stands for no significance. One-way analysis of variance (ANOVA) and Newman-Keuls test. Values were expressed as mean±S.E.M.
The plasmid cDNA encoding enhanced yellow fluorescent protein (EYFP)-tagged rat GAT-1 has been previously described. […]
Briefly, cells were cultured in […] dishes for 3 days before the GABA uptake experiment in DMEM with 10% fetal bovine serum and 1% penicillin/streptomycin. […] Glacial acetic acid was added, and lysates were then determined on a liquid scintillator with QuantaSmart. […]

For `O=C(O)CCCc1ccccc1` [PBA, 4-phenylbutyric acid], the “GAT-1 expression vs. same brain region of vehicle treated mice taken as 1” value [1] was 1.045±0.028, the “GAT-1 expression vs. same brain region of vehicle treated mice taken as 1” value [2] was 1.03±0.03 and the “GABA uptake normalized to its own DMSO treated condition” value [3] was 0.813±0.06.
